# According to ChEMBL document CHEMBL1201862, “PubChem BioAssay data set” (2004):
#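 Values below derive from 48-hour exposures of cells grown in 96-well plates, with endpoints linearly interpolated between the two concentrations bracketing the appropriate inhibition level. GI50: concentration for 50% inhibition of growth.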 The source made the active and inactive calls. No stated cut-off is given here; in the data, active = GI50 up to about 1.1 µM and inactive = higher.
# Experiments:
# Experiment in all cases: NCI tumour cell line growth inhibition, 48 h
# SNB-19 = tested on: SNB-19
# A498 = tested on: A498
# 786-0 = tested on: 786-0
# M14 = tested on: M14
# SN12C = tested on: SN12C
# A549 = tested on: A549
# OVCAR-8 = tested on: OVCAR-8
# MDA-MB-231 = tested on: MDA-MB-231
# U-251 = tested on: U-251
# MOLT-4 = tested on: MOLT-4
# MCF7 = tested on: MCF7
# K562 = tested on: K562
# NCI/ADR-RES = tested on: NCI/ADR-RES
# SF-268 = tested on: SF-268
# NCI-H522 = tested on: NCI-H522
# MDA-N = tested on: MDA-N
# NCI-H23 = tested on: NCI-H23
# SK-MEL-28 = tested on: SK-MEL-28
# SR = tested on: SR
# OVCAR-4 = tested on: OVCAR-4
# EKVX = tested on: EKVX
# MDA-MB-435 = tested on: MDA-MB-435
# UACC-257 = tested on: UACC-257
# TK-10 = tested on: TK-10
# LOX IMVI = tested on: LOX IMVI
# RPMI-8226 = tested on: RPMI-8226
# HCT-15 = tested on: HCT-15
# UACC-62 = tested on: UACC-62
# HCT-116 = tested on: HCT-116
# SF-295 = tested on: SF-295
# HCC 2998 = tested on: HCC 2998
# NCI-H226 = tested on: NCI-H226
# UO-31 = tested on: UO-31
# IGROV-1 = tested on: IGROV-1
# HOP-62 = tested on: HOP-62
# Hs-578T = tested on: Hs-578T
# ACHN = tested on: ACHN
# NCI-H460 = tested on: NCI-H460
# CAKI-1 = tested on: CAKI-1
# SK-MEL-2 = tested on: SK-MEL-2
# RXF 393 = tested on: RXF 393
# PC-3 = tested on: PC-3
# OVCAR-3 = tested on: OVCAR-3
# Malme-3M = tested on: Malme-3M
# SNB-75 = tested on: SNB-75
# COLO 205 = tested on: COLO 205
# KM12 = tested on: KM12
# T47D = tested on: T47D
# BT-549 = tested on: BT-549
# HT-29 = tested on: HT-29
# SF-539 = tested on: SF-539
# DU-145 = tested on: DU-145
# SK-OV-3 = tested on: SK-OV-3
# OVCAR-5 = tested on: OVCAR-5
# SK-MEL-5 = tested on: SK-MEL-5
# CCRF-CEM = tested on: CCRF-CEM
# HOP-92 = tested on: HOP-92
# SW-620 = tested on: SW-620
# HL-60 = tested on: HL-60
smiles,measurement,setting,value
O=C([C@H](O)[C@@H](O)c1ccc(Br)cc1)C12CC3CC(CC(C3)C1)C2,GI50,SNB-19,19.2 µM (inactive)
same,GI50,A498,11.6 µM (inactive)
same,GI50,786-0,9.53 µM (inactive)
same,GI50,M14,13.6 µM (inactive)
same,GI50,SN12C,17.9 µM (inactive)
same,GI50,A549,9.38 µM (inactive)
same,GI50,OVCAR-8,42.8 µM (inactive)
same,GI50,MDA-MB-231,10.5 µM (inactive)
same,GI50,U-251,7.18 µM (inactive)
same,GI50,MOLT-4,14.4 µM (inactive)
same,GI50,MCF7,7.31 µM (inactive)
same,GI50,K562,31.5 µM (inactive)
same,GI50,NCI/ADR-RES,24.9 µM (inactive)
same,GI50,SF-268,11.6 µM (inactive)
same,GI50,NCI-H522,10.8 µM (inactive)
same,GI50,MDA-N,11.1 µM (inactive)
same,GI50,NCI-H23,8.45 µM (inactive)
same,GI50,SK-MEL-28,24.7 µM (inactive)
same,GI50,SR,34.8 µM (inactive)
same,GI50,OVCAR-4,19.3 µM (inactive)
same,GI50,EKVX,32.4 µM (inactive)
same,GI50,MDA-MB-435,11.6 µM (inactive)
same,GI50,UACC-257,9.59 µM (inactive)
same,GI50,TK-10,14 µM (inactive)
same,GI50,LOX IMVI,31.1 µM (inactive)
same,GI50,RPMI-8226,14.3 µM (inactive)
same,GI50,HCT-15,13.6 µM
same,GI50,UACC-62,7.82 µM (inactive)
same,GI50,HCT-116,10.4 µM (inactive)
same,GI50,SF-295,13 µM (inactive)
same,GI50,HCC 2998,> 21.3 µM (inactive)
same,GI50,NCI-H226,> 49.8 µM (inactive)
same,GI50,UO-31,23.7 µM (inactive)
same,GI50,IGROV-1,4.48 µM (inactive)
same,GI50,HOP-62,7.6 µM (inactive)
same,GI50,Hs-578T,> 39.1 µM (inactive)
same,GI50,ACHN,16.3 µM (inactive)
same,GI50,NCI-H460,3.74 µM (inactive)
same,GI50,CAKI-1,14.9 µM (inactive)
same,GI50,SK-MEL-2,16.3 µM (inactive)
same,GI50,RXF 393,52.7 µM (inactive)
same,GI50,PC-3,6.58 µM (inactive)
same,GI50,OVCAR-3,9.25 µM (inactive)
same,GI50,Malme-3M,13.9 µM (inactive)
same,GI50,SNB-75,2.93 µM (inactive)
same,GI50,COLO 205,> 20.2 µM (inactive)
same,GI50,KM12,13.8 µM (inactive)
same,GI50,T47D,6.56 µM (inactive)
same,GI50,BT-549,8.73 µM (inactive)
same,GI50,HT-29,12.7 µM (inactive)
same,GI50,SF-539,8.91 µM (inactive)
same,GI50,DU-145,9.68 µM (inactive)
same,GI50,SK-OV-3,28.4 µM (inactive)
same,GI50,OVCAR-5,39.4 µM (inactive)
same,GI50,SK-MEL-5,23.6 µM (inactive)
CC(C)NC(=O)OCc1c2c(n(C)c1COC(=O)NC(C)C)-c1cc(Cl)c(Cl)cc1CC2,GI50,SNB-19,37.8 µM (inactive)
same,GI50,A498,6.37 µM (inactive)
same,GI50,786-0,37.2 µM (inactive)
same,GI50,M14,27.9 µM (inactive)
same,GI50,SN12C,43 µM (inactive)
same,GI50,A549,61 µM (inactive)
same,GI50,OVCAR-8,31 µM (inactive)
same,GI50,CCRF-CEM,17.2 µM (inactive)
same,GI50,MDA-MB-231,15.5 µM (inactive)
same,GI50,U-251,18.2 µM (inactive)
same,GI50,MOLT-4,18.7 µM (inactive)
same,GI50,MCF7,15.8 µM (inactive)
same,GI50,K562,16.6 µM (inactive)
same,GI50,NCI/ADR-RES,33.4 µM (inactive)
same,GI50,HOP-92,19.5 µM (inactive)
same,GI50,SF-268,69.2 µM (inactive)
same,GI50,MDA-N,32 µM (inactive)
same,GI50,NCI-H23,22.1 µM (inactive)
same,GI50,SK-MEL-28,64.1 µM (inactive)
same,GI50,SR,> 100 µM (inactive)
same,GI50,OVCAR-4,64.6 µM (inactive)
same,GI50,EKVX,33.3 µM (inactive)
same,GI50,MDA-MB-435,33.7 µM (inactive)
same,GI50,UACC-257,28.4 µM (inactive)
same,GI50,TK-10,25.2 µM (inactive)
same,GI50,LOX IMVI,38.3 µM (inactive)
same,GI50,RPMI-8226,23.4 µM (inactive)
same,GI50,HCT-15,23.8 µM
same,GI50,UACC-62,43.9 µM (inactive)
same,GI50,HCT-116,24.8 µM (inactive)
same,GI50,SF-295,46.5 µM (inactive)
same,GI50,HCC 2998,14.9 µM (inactive)
same,GI50,NCI-H226,8.91 µM (inactive)
same,GI50,UO-31,27 µM (inactive)
same,GI50,IGROV-1,20.3 µM (inactive)
same,GI50,HOP-62,54.5 µM (inactive)
same,GI50,Hs-578T,32.1 µM (inactive)
same,GI50,ACHN,34.2 µM (inactive)
same,GI50,NCI-H460,34.4 µM (inactive)
same,GI50,SK-MEL-2,25.2 µM (inactive)
same,GI50,RXF 393,21.7 µM (inactive)
same,GI50,PC-3,32.9 µM (inactive)
same,GI50,OVCAR-3,29.1 µM (inactive)
same,GI50,Malme-3M,49.3 µM (inactive)
same,GI50,SNB-75,29.4 µM (inactive)
same,GI50,COLO 205,31.3 µM (inactive)
same,GI50,KM12,30.6 µM (inactive)
same,GI50,T47D,22.6 µM (inactive)
same,GI50,BT-549,68.2 µM (inactive)
same,GI50,HT-29,31 µM (inactive)
same,GI50,SF-539,50.2 µM (inactive)
same,GI50,DU-145,70.8 µM (inactive)
same,GI50,SK-OV-3,33.7 µM (inactive)
same,GI50,OVCAR-5,25.8 µM (inactive)
same,GI50,SW-620,45.7 µM (inactive)
same,GI50,SK-MEL-5,42.7 µM (inactive)
OCC1OC(c2n[nH]c3c(O)ncnc23)C(O)C1O (stereo not given),GI50,SNB-19,31 µM (inactive)
same,GI50,A498,30.1 µM (inactive)
same,GI50,786-0,9.4 µM (inactive)
same,GI50,M14,5.48 µM (inactive)
same,GI50,SN12C,10.3 µM (inactive)
same,GI50,OVCAR-8,4.11 µM (inactive)
same,GI50,CCRF-CEM,7.38 µM (inactive)
same,GI50,MDA-MB-231,3.66 µM (inactive)
same,GI50,U-251,47.9 µM (inactive)
same,GI50,MOLT-4,5.37 µM (inactive)
same,GI50,MCF7,28.7 µM (inactive)
same,GI50,K562,7.48 µM (inactive)
same,GI50,NCI/ADR-RES,4.22 µM (inactive)
same,GI50,NCI-H522,10.2 µM (inactive)
same,GI50,MDA-N,31.7 µM (inactive)
same,GI50,NCI-H23,32.4 µM (inactive)
same,GI50,SK-MEL-28,50 µM (inactive)
same,GI50,SR,27.7 µM (inactive)
same,GI50,OVCAR-4,7.89 µM (inactive)
same,GI50,EKVX,28 µM (inactive)
same,GI50,MDA-MB-435,34.4 µM (inactive)
same,GI50,UACC-257,> 100 µM (inactive)
same,GI50,LOX IMVI,3.92 µM (inactive)
same,GI50,RPMI-8226,21.9 µM (inactive)
same,GI50,HCT-15,6.03 µM
same,GI50,UACC-62,31.6 µM (inactive)
same,GI50,HCT-116,7.28 µM (inactive)
same,GI50,SF-295,33.1 µM (inactive)
same,GI50,HCC 2998,18.7 µM (inactive)
same,GI50,NCI-H226,44.9 µM (inactive)
same,GI50,UO-31,8.79 µM (inactive)
same,GI50,IGROV-1,18.4 µM (inactive)
same,GI50,HOP-62,9.79 µM (inactive)
same,GI50,Hs-578T,33.8 µM (inactive)
same,GI50,ACHN,4.01 µM (inactive)
same,GI50,NCI-H460,10.6 µM (inactive)
same,GI50,CAKI-1,6.81 µM (inactive)
same,GI50,RXF 393,58.6 µM (inactive)
same,GI50,PC-3,6.68 µM (inactive)
same,GI50,HL-60,3.02 µM (inactive)
same,GI50,OVCAR-3,9.18 µM (inactive)
same,GI50,Malme-3M,16.1 µM (inactive)
same,GI50,SNB-75,> 100 µM (inactive)
same,GI50,COLO 205,13.9 µM (inactive)
same,GI50,KM12,16.7 µM (inactive)
same,GI50,T47D,4.72 µM (inactive)
same,GI50,BT-549,56.8 µM (inactive)
same,GI50,HT-29,11.9 µM (inactive)
same,GI50,SF-539,26 µM (inactive)
same,GI50,DU-145,1.48 µM (inactive)
same,GI50,SK-OV-3,2.89 µM (inactive)
same,GI50,OVCAR-5,18.9 µM (inactive)
same,GI50,SW-620,4.17 µM (inactive)
same,GI50,SK-MEL-5,21.5 µM (inactive)
